Measurements: patent US20250188069A1, “COMPOUNDS AND METHODS FOR DEGRADING CASEIN KINASE 1 ALPHA” (PIN THERAPEUTICS, INC., priority 2022, published 2025)
Counter-ions that a name gives are not always drawn. Like-named read-outs stand apart in the source and are kept apart here.

Assays:
Assay type in all cases: cell-based
MV-4-11 cells = test: AML cell viability assay (RealTime-Glo); conditions: Homo sapiens, MV4-11, IC50 class, MV-4-11 cells, read-out: Cell viability classification
CK1α [1] = target: T1, CK1α (Homo sapiens, UniProt P48729+Q96SW2); test: CK1α degradation, Jess assay in MV-4-11 cells; design: CK1α levels were determined in MV-4-11 cells using Jess (Protein Simple); host or cells: MV-4-11; dose or concentration left out as unconfirmed; conditions: MV4-11, % reduction of CK1α compared to DMSO, MV-4-11 cells for 16 hours, normalized to β-actin, read-out: CK1α degradation classification
Procedure: (§1) MM.1S and NCCIT cells were obtained from ATCC and grown in RPMI-1640 supplemented with 10% FBS. MV-4-11 cells were obtained from ATCC and grown in IMDM supplemented with 10% FBS. The cells were maintained at 37° C. under 5% CO2.
Compounds of the present disclosure was added to cells (final DMSO concentration of 0.1%) and incubated for 16 hours. CK1α levels were determined in MV-4-11 cells using Jess (Protein Simple). Briefly, whole cell lysates were prepared in lysis buffer (1×RIPA buffer [Thermo, 89900], 2 mM MgCl2 [Sigma, M1028], 0.05% Benzonase [Sigma, E1014], 1× Pierce protease inhibitor tablets EDTA-free [Thermo, A32965]). 6-20 μg of the lysates were analyzed using Jess with antibodies against CK1α (Abcam, ab108296) and β-actin (R&D Systems, MAB8929). Protein levels were normalized to β-actin levels. DC50 values were obtained using four-parameter non-linear regressions using Prism (GraphPad).
The efficacy of CK1α degradation of a part of compounds of the present disclosure was determined by treating MV-4-11 cells at […] (final DMSO concentration of 0.1%) for 16 hours. CK1α levels were determined using Jess and normalized to β-actin levels. The compounds are classified based on amount of CK1α degradation (% reduction of CK1α compared to DMSO) as follows. • A: Degradation is greater than or equal to 75%; • B: Degradation is less than […] & greater than or equal to 50%; • C: Degradation is less than […]; • ND: not determined.

CK1α [2] = target: T1, CK1α; test: CK1α degradation, Western blot in MV-4-11 cells; design: CK1α levels were determined in MV-4-11 cells using Jess (Protein Simple); host or cells: MV-4-11; conditions: % reduction of CK1α compared to DMSO, MV4-11 cells at 1 μM for 4 hours, read-out: CK1α degradation classification
Procedure: as §1
Compounds of the present disclosure was added to cells (final DMSO concentration of 0.1%) and incubated for 4 hours. CK1α levels were determined in MV-4-11 cells using Western blot analysis. Whole cell lysates were prepared in lysis buffer (1×RIPA buffer [Thermo, 89900], 2 mM MgCl2 [Sigma, M1028], 0.05% Benzonase [Sigma, E1014], 1× Pierce protease inhibitor tablets EDTA-free [Thermo, A32965]). […] of the lysates were analyzed using Western blot with antibodies against CK1α (Abcam, ab108296) and β-actin (R&D Systems, MAB8929).
The efficacy of CK1α degradation of other part of compounds of the present disclosure was determined by treating MV4-11 cells at 1 μM (Final DMSO concentration of 0.1%) for 4 hours. Protein levels relative to DMSO are calculated for CK1α. The compounds are classified based on the amount of CK1α degradation (% reduction of CK1α compared to DMSO) as follows. • A: Degradation is greater than or equal to 75%; • B: Degradation is less than 75% & greater than or equal to 50%; • C: Degradation is less than […]; • ND: not determined.

[3] = RealTime-Glo after 44 hrs of treatment (TABLE 1)

T1 sequence (P48729 whole entry): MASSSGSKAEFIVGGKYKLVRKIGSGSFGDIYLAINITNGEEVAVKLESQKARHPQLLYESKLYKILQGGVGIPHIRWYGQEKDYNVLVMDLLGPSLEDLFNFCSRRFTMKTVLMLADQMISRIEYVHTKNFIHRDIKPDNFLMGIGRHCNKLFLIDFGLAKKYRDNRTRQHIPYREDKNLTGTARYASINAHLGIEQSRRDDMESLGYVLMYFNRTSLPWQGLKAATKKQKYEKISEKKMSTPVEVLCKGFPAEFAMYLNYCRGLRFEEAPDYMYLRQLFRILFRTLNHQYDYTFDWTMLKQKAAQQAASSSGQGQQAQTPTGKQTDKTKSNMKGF
T1 sequence (Q96SW2 whole entry): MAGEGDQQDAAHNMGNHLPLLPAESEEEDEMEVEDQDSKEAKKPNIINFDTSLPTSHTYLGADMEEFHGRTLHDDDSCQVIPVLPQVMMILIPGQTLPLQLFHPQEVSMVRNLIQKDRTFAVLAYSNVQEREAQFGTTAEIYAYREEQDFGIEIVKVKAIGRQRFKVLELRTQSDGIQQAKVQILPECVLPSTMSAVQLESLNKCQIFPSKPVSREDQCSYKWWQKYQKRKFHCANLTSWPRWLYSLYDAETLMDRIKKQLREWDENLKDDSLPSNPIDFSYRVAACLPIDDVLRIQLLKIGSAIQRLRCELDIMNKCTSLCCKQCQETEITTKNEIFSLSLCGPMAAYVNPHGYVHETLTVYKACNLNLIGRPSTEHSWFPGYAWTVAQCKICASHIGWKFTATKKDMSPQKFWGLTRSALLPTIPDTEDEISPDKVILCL
T1 sequence (Q16531 whole entry partner): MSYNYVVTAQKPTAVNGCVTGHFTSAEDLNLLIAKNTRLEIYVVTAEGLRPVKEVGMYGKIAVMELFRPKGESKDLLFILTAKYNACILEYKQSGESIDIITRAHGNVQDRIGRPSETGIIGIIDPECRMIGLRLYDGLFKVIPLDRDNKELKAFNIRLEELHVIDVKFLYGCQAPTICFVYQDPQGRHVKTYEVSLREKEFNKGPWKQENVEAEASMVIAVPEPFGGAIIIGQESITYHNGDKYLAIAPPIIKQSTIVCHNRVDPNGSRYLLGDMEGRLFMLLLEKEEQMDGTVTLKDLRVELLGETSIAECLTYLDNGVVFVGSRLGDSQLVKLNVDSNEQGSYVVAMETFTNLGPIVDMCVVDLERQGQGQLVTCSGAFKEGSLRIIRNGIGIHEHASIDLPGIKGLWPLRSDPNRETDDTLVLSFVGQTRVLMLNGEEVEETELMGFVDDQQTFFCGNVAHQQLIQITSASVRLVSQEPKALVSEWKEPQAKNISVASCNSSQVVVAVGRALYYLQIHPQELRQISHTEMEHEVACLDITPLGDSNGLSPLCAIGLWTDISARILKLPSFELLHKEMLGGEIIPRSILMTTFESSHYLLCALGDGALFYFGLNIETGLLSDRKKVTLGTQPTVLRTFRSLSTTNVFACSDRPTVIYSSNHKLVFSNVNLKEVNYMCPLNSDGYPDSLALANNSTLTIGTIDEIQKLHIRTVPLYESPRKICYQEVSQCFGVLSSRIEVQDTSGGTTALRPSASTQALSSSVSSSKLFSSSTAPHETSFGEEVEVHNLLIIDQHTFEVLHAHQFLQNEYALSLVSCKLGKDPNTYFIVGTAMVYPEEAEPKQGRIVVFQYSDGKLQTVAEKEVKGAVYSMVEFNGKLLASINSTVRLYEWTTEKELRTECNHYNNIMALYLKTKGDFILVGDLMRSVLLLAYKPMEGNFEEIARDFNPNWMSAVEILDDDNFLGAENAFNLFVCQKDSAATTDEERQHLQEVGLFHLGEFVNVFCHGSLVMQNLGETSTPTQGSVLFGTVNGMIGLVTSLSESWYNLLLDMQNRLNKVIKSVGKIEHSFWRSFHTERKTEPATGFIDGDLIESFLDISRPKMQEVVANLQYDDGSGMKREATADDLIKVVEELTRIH

Row | IC50 (MV-4-11 cells; [3]) [nM] | Dmax (CK1α [1]) [%] | Dmax at 1 µM (CK1α [2]) [%] | IC50 (MV-4-11 cells; RealTime-Glo after 44 hrs of treatment (TABLE 4)) [nM] | Compound
1 | 100 to 1000 | 50 to 7500 |  |  | NCCCCN(CCCCCO)c1cccc2c1CN(C1CCC(=O)NC1=O)C2=O (centres unmarked) [Compound 51, 3-(4-((4-aminobutyl)(5-hydroxypentyl)amino)-1-oxoisoindolin-2-yl)piperidine-2,6-dione]
2 | 100 to 1000 | > 75 |  |  | NCCCCCN(CCCCN)c1cccc2c1CN(C1CCC(=O)NC1=O)C2=O (centres unmarked) [Compound 55, 3-(4-((4-aminobutyl)(5-aminopentyl)amino)-1-oxoisoindolin-2-yl)piperidine-2,6-dione dihydrochloride]
3 | < 100 | > 75 |  |  | CCCN(CCCCCN)c1cccc2c1CN(C1CCC(=O)NC1=O)C2=O (centres unmarked) [Compound 57, 3-(4-((5-aminopentyl)(propyl)amino)-1-oxoisoindolin-2-yl)piperidine-2,6-dione]
4 | < 100 | > 75 |  |  | NCCCCCCN(CCCCN)c1cccc2c1CN(C1CCC(=O)NC1=O)C2=O (centres unmarked) [Compound 60, 3-(4-((4-aminobutyl)(6-aminohexyl)amino)-1-oxoisoindolin-2-yl)piperidine-2,6-dione]
5 | < 100 | > 75 |  |  | CCCN(CCCCC(=O)NC)c1cccc2c1CN(C1CCC(=O)NC1=O)C2=O (centres unmarked) [Compound 63, 5-((2-(2,6-dioxopiperidin-3-yl)-1-oxoisoindolin-4-yl)(propyl)amino)-N-methylpentanamide]
6 | 100 to 1000 | 50 to 7500 |  |  | CCCCN(C/C=C/CN)c1cccc2c1CN(C1CCC(=O)NC1=O)C2=O (centres unmarked) [Compound 66, (E)-3-(4-((4-aminobut-2-en-1-yl)(butyl)amino)-1-oxoisoindolin-2-yl)piperidine-2,6-dione]
7 | < 100 | > 75 |  |  | CCCCN(C/C=C\CN)c1cccc2c1CN(C1CCC(=O)NC1=O)C2=O (centres unmarked) [Compound 67, (Z)-3-(4-((4-aminobut-2-en-1-yl)(butyl)amino)-1-oxoisoindolin-2-yl)piperidine-2,6-dione]
8 | < 100 | > 75 |  |  | CCCCCN(c1cccc2c1CN(C1CCC(=O)NC1=O)C2=O)[C@H]1CC[C@H](N)CC1 (some centres unmarked) [Compound 88, 3-(4-(((1r,4r)-4-aminocyclohexyl)(pentyl)amino)-1-oxoisoindolin-2-yl)piperidine-2,6-dione, HCl]
9 | < 100 | > 75 |  |  | CCCCCN(c1cccc2c1CN(C1CCC(=O)NC1=O)C2=O)[C@H]1CC[C@@H](CN)CC1 (stereo partly drawn) [Compound 89, 3-(4-(((1S,4S)-4-(aminomethyl)cyclohexyl)(pentyl)amino)-1-oxoisoindolin-2-yl)piperidine-2,6-dione hydrochloride]
10 | < 100 | > 75 |  |  | CCCCCN(c1cccc2c1CN(C1CCC(=O)NC1=O)C2=O)[C@H]1CC[C@H](CN)CC1 (stereo partly drawn) [Compound 90, 3-(4-(((1R,4R)-4-(aminomethyl)cyclohexyl)(pentyl)amino)-1-oxoisoindolin-2-yl)piperidine-2,6-dione hydrochloride]
11 | < 100 | > 75 |  |  | N[C@H]1CC[C@H](N(CCCc2ccccc2)c2cccc3c2CN(C2CCC(=O)NC2=O)C3=O)CC1 (some centres unmarked) [Compound 251, 3-(4-(((1r,4r)-4-aminocyclohexyl)(3-phenylpropyl)amino)-1-oxoisoindolin-2-yl)piperidine-2,6-dione hydrochloride]
12 | < 100 | > 75 |  |  | CCCCCN(c1cccc2c1CN(C1CCC(=O)NC1=O)C2=O)[C@@H]1CC[C@@H](N)C1 (stereo partly drawn) [Compound 323, 3-(4-(((1R,3R)-3-aminocyclopentyl)(pentyl)amino)-1-oxoisoindolin-2-yl)piperidine-2,6-dione]
13 | < 100 | > 75 |  |  | NC[C@H]1CC[C@@H](N(CCC2CC2)c2cccc3c2CN(C2CCC(=O)NC2=O)C3=O)CC1 (some centres unmarked) [Compound 358, 3-(4-(((1s,4s)-4-(aminomethyl)cyclohexyl)(2-cyclopropylethyl)amino)-1-oxoisoindolin-2-yl)piperidine-2,6-dione]
14 |  |  | > 75 | < 100 | O=C1CCC(N2Cc3c(cccc3N(CCC3CC3)[C@H]3C[C@@H](c4nnc[nH]4)C3)C2=O)C(=O)N1 (some centres unmarked) [Compound 603, 3-{4-[(2-cyclopropylethyl)[(1s,3s)-3-(4H-1,2,4-triazol-3-yl)cyclobutyl]amino]-1-oxo-3H-isoindol-2-yl}piperidine-2,6-dione; formate]

The next lines start with the compound.

Row | Compound | IC50 (MV-4-11 cells; [3]) [nM] | Dmax (CK1α [1]) [%] | Dmax at 1 µM (CK1α [2]) [%] | IC50 (MV-4-11 cells; RealTime-Glo after 44 hrs of treatment (TABLE 4)) [nM]
15 | CC(C)CCCCCN(CCCCN)c1cccc2c1CN(C1CCC(=O)NC1=O)C2=O (centres unmarked) [Compound 52, 3-(4-((4-aminobutyl)(6-methylheptyl)amino)-1-oxoisoindolin-2-yl)piperidine-2,6-dione] | 100 to 1000 | > 75 |  | 
16 | NCCCCN(CCCCCCO)c1cccc2c1CN(C1CCC(=O)NC1=O)C2=O (centres unmarked) [Compound 56, 3-(4-((4-aminobutyl)(6-hydroxyhexyl)amino)-1-oxoisoindolin-2-yl)piperidine-2,6-dione] | 100 to 1000 | 50 to 7500 |  | 
17 | C/C=C/CN(CCCCN)c1cccc2c1CN(C1CCC(=O)NC1=O)C2=O (centres unmarked) [Compound 68, (E)-3-(4-((4-aminobutyl)(but-2-en-1-yl)amino)-1-oxoisoindolin-2-yl)piperidine-2,6-dione] | < 100 | > 75 |  | 
18 | C/C=C\CN(CCCCN)c1cccc2c1CN(C1CCC(=O)NC1=O)C2=O (centres unmarked) [Compound 69, (Z)-3-(4-((4-aminobutyl)(but-2-en-1-yl)amino)-1-oxoisoindolin-2-yl)piperidine-2,6-dione] | 100 to 1000 | 50 to 7500 |  | 
19 | CCCCCN(CCCCNC)c1cccc2c1CN(C1CCC(=O)NC1=O)C2=O (centres unmarked) [Compound 80, 3-(4-((4-(methylamino)butyl)(pentyl)amino)-1-oxoisoindolin-2-yl)piperidine-2,6-dione.Hydrochloride] | < 100 | > 75 |  | 
20 | CCCCCN(CCCCNC(C)=O)c1cccc2c1CN(C1CCC(=O)NC1=O)C2=O (centres unmarked) [Compound 82, N-(4-((2-(2,6-dioxopiperidin-3-yl)-1-oxoisoindolin-4-yl)(pentyl)amino)butyl)acetamide] | < 100 | 50 to 7500 |  | 
21 | CCCCCN(c1cccc2c1CN(C1CCC(=O)NC1=O)C2=O)[C@H]1CC[C@@H](N)CC1 (stereo partly drawn) [Compound 87, 3-(4-(((1S,4S)-4-aminocyclohexyl)(pentyl)amino)-1-oxoisoindolin-2-yl)piperidine-2,6-dione hydrochloride] | < 100 | > 75 |  | 
22 | CCCCN(CC#CCN)c1cccc2c1CN(C1CCC(=O)NC1=O)C2=O (centres unmarked) [Compound 115, 3-(4-((4-aminobut-2-yn-1-yl)(butyl)amino)-1-oxoisoindolin-2-yl)piperidine-2,6-dione] | > 1000 | 50 to 7500 |  | 
23 | CC#CCN(CCCCN)c1cccc2c1CN(C1CCC(=O)NC1=O)C2=O (centres unmarked) [Compound 116, 3-(4-((4-aminobutyl)(but-2-yn-1-yl)amino)-1-oxoisoindolin-2-yl)piperidine-2,6-dione] | < 100 | > 75 |  | 
24 | CCCCCN(c1cccc2c1CN(C1CCC(=O)NC1=O)C2=O)[C@@H]1CC[C@H](N)C1 (stereo partly drawn) [Compound 324, 3-(4-(((1R,3S)-3-aminocyclopentyl)(pentyl)amino)-1-oxoisoindolin-2-yl)piperidine-2,6-dione] | < 100 | > 75 |  | 
25 | NC[C@H]1CC[C@@H](N(CCCC2CCOCC2)c2cccc3c2CN(C2CCC(=O)NC2=O)C3=O)CC1 (some centres unmarked) [Compound 333, 3-(4-(((1s,4s)-4-(aminomethyl)cyclohexyl)(3-(tetrahydro-2H-pyran-4-yl)propyl)amino)-1-oxoisoindolin-2-yl)piperidine-2,6-dione] | < 100 | > 75 |  | 
